Laboratory results reported in patent publication US12252701B2, “Chimeric antigen receptor T cell therapy” (KITE PHARMA, INC., priority 2020, dated 2025).

What was measured:
Nalm6 cells = experiment: Serial killing assay, T-cell (CD4, CD8) and Nalm6 cell counts by flow cytometry; assay type: cell-based, human; settings: for persistence of T-cells (CD4 and CD8 counts) / serial killing assessed by Nalm6 cells (flow cytometry): E:T ratio of 1:1, dose titration; for impact on T-cell counts and Nalm6 cell counts: E:T ratio of 1:3, dose titration
Method: T-cell counts (CD4 and CD8) were assessed by flow cytometry.
Nalm6 cells were assessed by flow cytometry.
T-cell counts (CD4 and CD8) and Nalm6 cells were assessed by flow cytometry.

JAK1 = JAK1 (Homo sapiens, UniProt P23458); experiment: JAK kinase inhibition biochemical assay (Kinase-Glo Plus luminescence), JAK1; settings: for IC50: 10 μM ATP
Chain of JAK1 (P23458 whole entry): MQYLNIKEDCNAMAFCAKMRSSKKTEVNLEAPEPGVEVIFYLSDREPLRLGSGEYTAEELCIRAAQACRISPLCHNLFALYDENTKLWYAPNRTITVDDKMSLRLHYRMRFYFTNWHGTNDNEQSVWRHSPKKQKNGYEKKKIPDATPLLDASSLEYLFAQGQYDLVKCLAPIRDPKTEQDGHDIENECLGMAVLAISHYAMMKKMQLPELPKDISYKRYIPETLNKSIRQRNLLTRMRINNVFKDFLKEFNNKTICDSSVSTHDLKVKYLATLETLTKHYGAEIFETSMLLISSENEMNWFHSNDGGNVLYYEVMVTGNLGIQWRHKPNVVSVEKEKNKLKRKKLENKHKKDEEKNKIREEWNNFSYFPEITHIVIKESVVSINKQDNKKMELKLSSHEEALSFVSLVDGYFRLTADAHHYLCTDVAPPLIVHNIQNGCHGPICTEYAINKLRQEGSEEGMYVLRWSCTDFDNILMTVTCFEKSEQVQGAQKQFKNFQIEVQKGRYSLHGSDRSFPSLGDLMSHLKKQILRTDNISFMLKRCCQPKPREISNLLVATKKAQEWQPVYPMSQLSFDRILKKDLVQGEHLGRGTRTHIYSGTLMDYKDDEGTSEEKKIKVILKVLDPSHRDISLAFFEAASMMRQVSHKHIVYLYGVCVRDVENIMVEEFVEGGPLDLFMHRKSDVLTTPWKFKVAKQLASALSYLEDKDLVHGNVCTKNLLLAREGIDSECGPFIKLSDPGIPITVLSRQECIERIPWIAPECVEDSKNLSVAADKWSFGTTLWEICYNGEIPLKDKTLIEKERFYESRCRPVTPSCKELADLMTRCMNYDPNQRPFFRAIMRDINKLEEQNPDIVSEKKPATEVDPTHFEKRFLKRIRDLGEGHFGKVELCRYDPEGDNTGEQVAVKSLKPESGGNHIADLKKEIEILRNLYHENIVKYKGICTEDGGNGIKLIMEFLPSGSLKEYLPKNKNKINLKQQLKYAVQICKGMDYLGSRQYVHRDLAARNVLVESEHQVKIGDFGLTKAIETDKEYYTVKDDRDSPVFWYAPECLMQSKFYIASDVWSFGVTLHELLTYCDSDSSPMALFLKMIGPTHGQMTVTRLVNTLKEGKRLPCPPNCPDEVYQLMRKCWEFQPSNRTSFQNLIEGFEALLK
Method: (§1) JAK kinase inhibition in vitro biochemical assays were performed using Kinase-Glo Plus luminescence kinase assay kit (Promega). Kinase activity was measured by quantitating the amount of ATP remaining in solution following a kinase reaction. Luminescent signal from the assay was correlated with the amount of ATP present and was inversely correlated with the amount of kinase activity. Compounds were diluted in 10% DMSO and 5 μl of the dilution were added to a 50 μl reaction so that the final concentration of DMSO was 1% in all of the reactions. […] All enzymatic reactions were conducted at 30° C. for 45 minutes. The 50 μl reaction mixture contained 40 mM Tris, pH 7.4, 10 mM MgCl2, 0.1 mg/ml BSA, 1 mM DTT, 10 μM ATP, Kinase substrate and the enzyme. After the enzymatic reaction, 50 μl of Kinase-Glo Plus Luminescence kinase assay solution (Promega) were added to each reaction and incubated in the plate for 15 minutes at room temperature. Luminescence signal was measured using a Bio-Tek Synergy 2 microplate reader. Kinase activity was performed in duplicate at each concentration and data were analyzed using Graphpad Prism. The difference between luminescence intensities in the absence of Kinase (Lut) and in the presence of Kinase (Luc) was defined as 100% activity (Lut−Luc). Using luminescence signal (Lu) in the presence of the compound, % activity was calculated as: % activity={Lut−Lu)/(Lut−Luc)}×100%, where Lu=the luminescence intensity in the presence of compound.

JAK2 = JAK2 (Homo sapiens, UniProt O60674); experiment: JAK kinase inhibition biochemical assay (Kinase-Glo Plus luminescence), JAK2; settings: 10 μM ATP
Chain of JAK2 (O60674 whole entry): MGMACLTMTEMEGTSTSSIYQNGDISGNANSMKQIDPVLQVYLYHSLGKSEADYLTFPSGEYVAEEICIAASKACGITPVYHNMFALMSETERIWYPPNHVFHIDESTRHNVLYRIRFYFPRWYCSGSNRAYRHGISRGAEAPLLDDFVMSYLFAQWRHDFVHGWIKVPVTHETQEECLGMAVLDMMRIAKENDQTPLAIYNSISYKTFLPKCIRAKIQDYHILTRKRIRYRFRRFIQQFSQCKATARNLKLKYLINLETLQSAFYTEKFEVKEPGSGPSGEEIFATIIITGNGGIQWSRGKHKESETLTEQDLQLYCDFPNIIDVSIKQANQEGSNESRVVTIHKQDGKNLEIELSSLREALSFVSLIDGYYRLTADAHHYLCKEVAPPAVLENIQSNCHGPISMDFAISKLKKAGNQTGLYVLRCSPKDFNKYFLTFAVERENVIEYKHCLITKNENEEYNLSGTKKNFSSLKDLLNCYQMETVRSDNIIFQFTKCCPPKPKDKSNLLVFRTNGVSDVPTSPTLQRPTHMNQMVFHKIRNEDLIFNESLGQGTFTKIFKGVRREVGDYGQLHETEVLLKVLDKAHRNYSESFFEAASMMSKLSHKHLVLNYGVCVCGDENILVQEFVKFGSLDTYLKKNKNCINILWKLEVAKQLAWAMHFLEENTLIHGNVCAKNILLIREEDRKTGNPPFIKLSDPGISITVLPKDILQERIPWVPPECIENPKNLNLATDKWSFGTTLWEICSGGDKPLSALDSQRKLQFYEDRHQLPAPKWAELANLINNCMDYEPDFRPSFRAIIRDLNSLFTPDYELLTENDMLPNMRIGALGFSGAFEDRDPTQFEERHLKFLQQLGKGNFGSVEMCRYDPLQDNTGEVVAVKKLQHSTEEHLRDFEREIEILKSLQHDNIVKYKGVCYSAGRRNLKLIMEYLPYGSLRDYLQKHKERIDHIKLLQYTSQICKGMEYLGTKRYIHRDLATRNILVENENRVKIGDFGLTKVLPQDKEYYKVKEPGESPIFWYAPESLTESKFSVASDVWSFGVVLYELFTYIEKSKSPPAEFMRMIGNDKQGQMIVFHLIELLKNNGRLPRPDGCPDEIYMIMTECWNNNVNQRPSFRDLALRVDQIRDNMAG
Method: as §1, with “The 50 μl reaction mixture contained 40 mM Tris, pH 7.4, 10 mM MgCl2, 0.1 mg/ml BSA, 1 mM DTT, 10 μM ATP, Kinase substrate and the enzyme.” left out

[1] = system: NALM6.GFP.LUC.CD19 target cells
macrophage = experiment: Macrophage polarization, M1/M2 phenotypic markers by flow cytometry; assay type: cell-based
JAK3 = molecular target: T1, JAK3 (Homo sapiens, UniProt P52333); experiment: JAK kinase inhibition biochemical assay (Kinase-Glo Plus luminescence), JAK3
T1 sequence (P52333 1-1124): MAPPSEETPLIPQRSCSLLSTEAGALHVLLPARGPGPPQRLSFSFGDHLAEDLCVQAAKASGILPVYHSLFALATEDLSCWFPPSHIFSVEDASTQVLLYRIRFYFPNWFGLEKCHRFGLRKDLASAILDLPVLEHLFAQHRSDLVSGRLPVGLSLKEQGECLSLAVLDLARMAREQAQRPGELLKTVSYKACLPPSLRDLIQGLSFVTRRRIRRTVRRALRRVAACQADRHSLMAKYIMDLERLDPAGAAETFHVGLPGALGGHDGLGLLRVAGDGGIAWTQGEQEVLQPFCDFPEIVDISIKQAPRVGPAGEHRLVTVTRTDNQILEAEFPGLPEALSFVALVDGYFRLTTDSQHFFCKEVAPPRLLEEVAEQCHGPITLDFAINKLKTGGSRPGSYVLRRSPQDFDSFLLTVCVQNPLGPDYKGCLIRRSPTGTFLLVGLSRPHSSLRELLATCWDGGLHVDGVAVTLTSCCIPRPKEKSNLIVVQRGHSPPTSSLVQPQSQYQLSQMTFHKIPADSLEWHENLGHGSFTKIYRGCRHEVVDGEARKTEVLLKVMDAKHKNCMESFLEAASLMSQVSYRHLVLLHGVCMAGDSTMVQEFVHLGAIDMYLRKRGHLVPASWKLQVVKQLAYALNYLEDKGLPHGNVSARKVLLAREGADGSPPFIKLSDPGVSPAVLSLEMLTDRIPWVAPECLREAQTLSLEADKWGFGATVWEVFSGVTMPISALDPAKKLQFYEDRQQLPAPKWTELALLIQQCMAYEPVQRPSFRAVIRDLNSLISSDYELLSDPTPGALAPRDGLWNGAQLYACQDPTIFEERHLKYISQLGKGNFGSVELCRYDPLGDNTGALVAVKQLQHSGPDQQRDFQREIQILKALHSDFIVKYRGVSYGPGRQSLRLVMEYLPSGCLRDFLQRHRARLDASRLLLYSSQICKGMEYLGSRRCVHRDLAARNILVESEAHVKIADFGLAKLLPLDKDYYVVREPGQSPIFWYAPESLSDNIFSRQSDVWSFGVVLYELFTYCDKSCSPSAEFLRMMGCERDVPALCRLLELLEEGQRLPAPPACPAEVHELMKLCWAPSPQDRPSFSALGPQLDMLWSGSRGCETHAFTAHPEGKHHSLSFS
Method: as §1, with “The 50 μl reaction mixture contained 40 mM Tris, pH 7.4, 10 mM MgCl2, 0.1 mg/ml BSA, 1 mM DTT, 10 μM ATP, Kinase substrate and the enzyme.” left out

[2] = system: monocyte-derived macrophages; experiment: Macrophage differentiation and M1/M2 polarization (surface markers by flow cytometry); assay type: cell-based, human; settings: for CD209 surface expression in M2 polarized macrophage cultures: compared to normal M2 polarization culture conditions; for skewing of macrophage phenotype amidst M2 polarizing conditions (M1 markers CD38 and HLA-DR): separate experiment
Method: Monocytes were prepared from healthy donor PBMCs by negative selection for CD14+ monocytes using MACS (these cryopreserved monocytes provided by […], Alameda, CA) at >95% purity. Monocytes were differentiated into macrophages (M0) using traditional methods. In brief, 1×10^6 monocytes were plated into 12-well plate wells in a total volume of 2 mL macrophage culture media (MCM) (ImmunoCult™-SF Macrophage medium, Stem Cell Technologies) containing 50 ng/ml M-CSF and cultured for 6 days at 37° C./5% CO2. On day 2 of differentiation, cultures were replenished with fresh media and M-CSF. On day 6, a portion of the wells containing differentiated macrophages were replenished with 2 ml of fresh MCM containing 50 ng/ml M-CSF, 100 ng/ml LPS, 20 ng/ml IFNg and cultured for another 48 hours to polarize the macrophage to an M1 macrophage phenotype. Also on day 6, another portion of the wells containing differentiated macrophages were replenished with 2 ml of fresh R10 containing 50 ng/ml M-CSF and 20 ng/ml IL-4 and cultured for another 48 hours to polarize the macrophages to M2 macrophage phenotype. On day 8, all putative polarized macrophages were assessed for M1 and M2-specific surface markers using relevant M1/M2 immunophenotyping panels and flow cytometry. The cell surface markers used to assess monocytes, M0, M1 and M2 macrophage phenotypes included CD14, CD32, CD38, CD80, CD86, CD68, CD163, CD200R1, CD204, CD206, CD209, and HLA-DR.

| Compound | persistence of T-cells (CD4 and CD8 counts) (Nalm6 cells) | serial killing assessed by Nalm6 cells (flow cytometry) (Nalm6 cells) | impact on T-cell counts and Nalm6 cell counts (Nalm6 cells) | IC50 (JAK1) [nM] | IC50 (JAK2) [nM] | CD209 surface expression in M2 polarized macrophage cultures ([2]; 10 μM) | skewing of macrophage phenotype amidst M2 polarizing conditions (M1 markers CD38 and HLA-DR) [2] | also measured |
| --- | --- | --- | --- | --- | --- | --- | --- | --- |
| Nc1nc2cccc(-c3ccc(CN4CCS(=O)(=O)CC4)cc3)n2n1 [GS-829845] | Improved persistence | enhance serial killing in a dose-dependent manner | not impacted | 448 | 2160 |  |  | less potency than parent compound filgotinib (JAK1): about 10 fold |
| C[C@@H]1C[C@H]2[C@@H]3CCC4=CC(=O)C=C[C@]4(C)[C@@]3(F)[C@@H](O)C[C@]2(C)[C@@]1(O)C(=O)CO [dexamethasone] |  |  |  |  |  |  |  | impact on CAR-T serial killing (percent cytotoxicity) [1]: differential impacts |
| O=C(Nc1nc2cccc(-c3ccc(CN4CCS(=O)(=O)CC4)cc3)n2n1)C1CC1 [filgotinib] | Improved persistence | enhance serial killing in a dose-dependent manner | not impacted |  |  | No reduction | skewed macrophages away from M2 towards M1 phenotype | macrophage polarization (macrophage): promotes polarization of macrophages from M2 to M1 macrophages; activity against JAK3 (JAK3; biochemical assay): limited activity; inhibition of an M2 polarized phenotype ([2]; 10 μM, compared to no drug/normal M2 polarization culture conditions): stronger inhibition of an M2 polarized phenotype than Tofacitinib; influence on inhibiting M2 polarization by period of use ([2]; 10 μM, during 6-day differentiation versus only during M2 polarization): stronger influence on inhibiting M2 polarization when used during the 6-day macrophage differentiation; inhibiting the formation of an M2 polarized phenotype ([2]; 10 μM, used during both macrophage differentiation and M2 polarization): even stronger |
| N#CCC1(n2cc(-c3ncnc4[nH]ccc34)cn2)CN(C2CCN(C(=O)c3ccnc(C(F)(F)F)c3F)CC2)C1 [itacitinib] |  |  |  | 13 | 69 |  |  | IC50 (JAK3; 10 μM ATP): 921 nM |
| C[C@@H]1CCN(C(=O)CC#N)C[C@@H]1N(C)c1ncnc2[nH]ccc12 [tofacitinib] |  |  |  |  |  | No reduction | skewed macrophages away from M2 towards M1 phenotype |  |
